# Measurements published in patent US11639350B2, “Heteroaryldihydropyrimidine derivatives and methods of treating hepatitis B infections” (Janssen Pharmaceutica NV, priority 2018, dated 2023).
# Like-named read-outs stand apart in the source and are kept apart here.
# Experiments:
# [1] = tested on: HBV; assay: HBV inhibitory activity: HBV DNA in the culture medium of HepG2.2.15 cells by q-PCR; type: cell-based; conditions: HepG2.2.15 cells, 6 days of compound treatment, HBV DNA in culture medium by q-PCR, highest concentration 10 μM, read-out: EC50
# In short: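 Supernatant HBV DNA quantified by q-PCR after a 6-day compound exposure, with one mid-course medium change, of HepG2.2.15 cells (stably integrated HBV; 40,000 per well, 2% FBS). Eight-point 3-fold series topped at 10 μM for antiviral EC50; separate plates of 5,000 cells per well with 100 μM top give CC50.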
# [2] = tested on: HepG2.2.15 cells; assay: Cytotoxicity determination in HepG2.2.15 cells (CCK-8); type: cell-based; conditions: 6 days of compound treatment, CCK-8, highest concentration 100 μM
# In short: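 CC50 is from CCK-8 absorbance (450 nm, 630 nm reference) after 2.5 h with reagent. Before that, compounds were applied for six days, top concentration 100 μM, eight threefold dilutions, one mid-course medium change, to stably HBV-integrated HepG2.2.15 cells plated at 5,000/well in 2% FBS.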
compound,measurement,setting,value
"COC(=O)C1=C(C2CCC(=O)N2)NC(c2nccs2)=NC1c1cccc(F)c1Cl (single isomer, unassigned) [Compound 75D, Methyl 4-(2-chloro-3-fluorophenyl)-6-(5-oxopyrrolidin-2-yl)-2-(thiazol-2-yl)-1,4-dihydropyrimidine-5-carboxylate]",EC50,[1],0.045 µM
same,CC50,[2],10.2 µM
"CCOC(=O)C1=C(C2CCN(S(=O)(=O)C3CC(C)(C(=O)O)C3)CC2)NC(c2nccs2)=NC1c1cccc(F)c1C (single isomer, unassigned) [Compound 429D, (cis)-3-((4-(−5-(Ethoxycarbonyl)-6-(3-fluoro-2-methylphenyl)-2-(thiazol-2-yl)-3,6-dihydropyrimidin-4-yl)piperidin-1-yl)sulfonyl)-1-methylcyclobutanecarboxylic Acid]",EC50,[1],0.049 µM
same,CC50,[2],16 µM
"COC(=O)C1=C(C2CCC(NC(C)=O)C2)NC(c2nccs2)=NC1c1ccc(F)c(F)c1Cl (single isomer, unassigned) [Compound 300B, Methyl 6-(−3-acetamidocyclopentyl)-4-(2-chloro-3,4-difluorophenyl)-2-(thiazol-2-yl)-1,4-dihydropyrimidine-5-carboxylate]",EC50,[1],0.013 µM
same,CC50,[2],28.6 µM
"COC(=O)C1=C(C2CCN(S(=O)(=O)C3CC(C)(C(=O)O)C3)CC2)NC(c2nccs2)=NC1c1ccc(F)cc1C (stereo not drawn) [Compound 447C, (trans)-3-((4-(6-(4-Fluoro-2-methylphenyl)-5-(methoxycarbonyl)-2-(thiazol-2-yl)-3,6-dihydropyrimidin-4-yl)piperidin-1-yl)sulfonyl)-1-methylcyclobutanecarboxylic Acid]",EC50,[1],0.08 µM
same,CC50,[2],48.2 µM
"COC(=O)C1=C(C2CCN(S(=O)(=O)CC3(C)CCC(C(=O)O)CC3)CC2)NC(c2nccs2)=NC1c1ccc(F)c(F)c1Cl (single isomer, unassigned) [Compound 452A, (cis)-4-(((4-(6-(2-Chloro-3,4-difluorophenyl)-5-(methoxycarbonyl)-2-(thiazol-2-yl)-3,6-dihydropyrimidin-4-yl)piperidin-1-yl)sulfonyl)methyl)-4-methylcyclohexanecarboxylic Acid]",EC50,[1],0.006 µM
same,CC50,[2],9.7 µM
"COC(=O)C1=C(C2COC(CO)C2)NC(c2nccs2)=NC1c1cccc(F)c1Cl (single isomer, unassigned) [Compound 219E, Methyl 4-(2-chloro-3-fluorophenyl)-6-(5-(hydroxymethyl)-tetrahydrofuran-3-yl)-2-(thiazol-2-yl)-1,4-dihydropyrimidine-5-carboxylate]",EC50,[1],0.134 µM
same,CC50,[2],51.4 µM
"COC(=O)C1=C(C2CCC(NS(C)(=O)=O)C2)NC(c2nccs2)=NC1c1cccc(F)c1Cl (single isomer, unassigned) [Compound 61E, Methyl 4-(2-chloro-3-fluorophenyl)-6-(3-(methylsulfonamido)cyclopentyl)-2-(thiazol-2-yl)-1,4-dihydropyrimidine-5-carboxylate]",EC50,[1],0.358 µM
same,CC50,[2],21.7 µM
"COC(=O)C1=C(C2C[C@@H]3CN(S(C)(=O)=O)C[C@@H]3C2)NC(c2nccs2)=NC1c1ccc(F)cc1Cl (single isomer, unassigned) [Compound 176D, Methyl 4-(2-chloro-4-fluorophenyl)-6-((cis)-2-(methylsulfonyl)-octahydrocyclopenta[c]pyrrol-5-yl)-2-(thiazol-2-yl)-1,4-dihydropyrimidine-5-carboxylate]",EC50,"[1]; Hepatitis B virus, HepG2.2.15, 144 h",0.7 µM
same,CC50,[2],11 µM
"CCOC(=O)C1=C([C@H]2CCC[C@H](C(=O)O)CC2)NC(c2nccs2)=NC1c1ccc(F)c(F)c1Cl (single isomer, unassigned) [Compound 302F, (trans)-4-(−6-(2-Chloro-3,4-difluorophenyl)-5-(ethoxycarbonyl)-2-(thiazol-2-yl)-3,6-dihydropyrimidin-4-yl)cycloheptanecarboxylic Acid]",EC50,[1],0.037 µM
same,CC50,[2],10.3 µM
"COC(=O)C1=C(C2CCN(S(=O)(=O)CC(O)CO)CC2)NC(c2nccs2)=NC1c1ccc(F)cc1Cl (single isomer, unassigned) [Compound 305B, Methyl 4-(2-chloro-4-fluorophenyl)-6-(1-((2,3-dihydroxypropyl)sulfonyl)piperidin-4-yl)-2-(thiazol-2-yl)-1,4-dihydropyrimidine-5-carboxylate]",EC50,[1],0.025 µM
same,CC50,[2],34.5 µM
"COC(=O)C1=C(C2CCCN(S(C)(=O)=O)C2)NC(c2nccs2)=NC1c1ccc(F)cc1Cl (single isomer, unassigned) [Compound 33C, Methyl 4-(2-chloro-4-fluorophenyl)-6-(1-(methylsulfonyl)piperidin-3-yl)-2-(thiazol-2-yl)-1,4-dihydropyrimidine-5-carboxylate]",EC50,[1],0.484 µM
same,CC50,[2],37.7 µM
"COC(=O)C1=C(C2CCN(S(C)(=N)=O)CC2)NC(c2nccs2)=NC1c1ccc(F)c(F)c1Cl (stereo not shown) [Compound 205B, methyl 4-(2-chloro-3,4-difluorophenyl)-6-(1-(S-methylsulfonimidoyl)piperidin-4-yl)-2-(thiazol-2-yl)-1,4-dihydropyrimidine-5-carboxylate]",EC50,[1],0.189 µM
same,CC50,[2],40.5 µM
"COC(=O)C1=C(C2CCC(NC(C)=O)C2)NC(c2nccs2)=NC1c1ccc(F)c(F)c1Cl (single isomer, unassigned) [Compound 300G, Methyl 6-(−3-acetamidocyclopentyl)-4-(2-chloro-3,4-difluorophenyl)-2-(thiazol-2-yl)-1,4-dihydropyrimidine-5-carboxylate]",EC50,[1],0.122 µM
same,CC50,[2],23.9 µM
"CCOC(=O)C1=C(C2CCN(S(=O)(=O)C3CC(C)(C(=O)O)C3)CC2)NC(c2nccs2)=NC1c1cccc(F)c1Cl (single isomer, unassigned) [Compound 321B, (cis)-3-((4-(6-(2-Chloro-3-fluorophenyl)-5-(ethoxycarbonyl)-2-(thiazol-2-yl)-3,6-dihydropyrimidin-4-yl)piperidin-1-yl)sulfonyl)-1-methylcyclobutanecarboxylic Acid]",EC50,[1],0.06 µM
same,CC50,[2],15.8 µM
"CCOC(=O)C1=C(C2CCN(S(=O)(=O)[C@H]3C[C@H](C(=O)O)C3)CC2)NC(c2nccs2)=NC1c1ccc(F)c(F)c1C (single isomer, unassigned) [Compound 343C, (trans)-3-((4-(6-(3,4-difluoro-2-methylphenyl)-5-(ethoxycarbonyl)-2-(thiazol-2-yl)-3,6-dihydropyrimidin-4-yl)piperidin-1-yl)sulfonyl)cyclobutanecarboxylic Acid]",EC50,[1],0.014 µM
same,CC50,[2],25.2 µM
"CCOC(=O)C1=C(C2CCN(S(=O)(=O)CC3CC(C(=O)O)C3)CC2)NC(c2nccs2)=NC1c1ccc(F)c(F)c1Cl (stereo not shown) [Compound 480Y, 3-(((4-(6-(2-Chloro-3,4-difluorophenyl)-5-(ethoxycarbonyl)-2-(thiazol-2-yl)-3,6-dihydropyrimidin-4-yl)piperidin-1-yl)sulfonyl)methyl)cyclobutanecarboxylic Acid]",EC50,[1],0.011 µM
same,CC50,[2],10.2 µM
"COC(=O)C1=C(C2CCN(C)C(=O)C2)NC(c2nccs2)=NC1c1ccc(F)cc1Cl (single isomer, unassigned) [Compound 1B, Methyl 4-(2-chloro-4-fluorophenyl)-6-(1-methyl-2-oxopiperidin-4-yl)-2-(thiazol-2-yl)-1,4-dihydropyrimidine-5-carboxylate]",EC50,[1],0.096 µM
same,CC50,[2],13.6 µM
"COC(=O)C1=C(C2CCN(S(=O)(=O)C3CCC(C)(C(=O)O)CC3)CC2)NC(c2nccs2)=NC1c1ccc(F)c(F)c1Cl (single isomer, unassigned) [Compound 210A, (trans)-4-((4-(6-(2-chloro-3,4-difluorophenyl)-5-(methoxycarbonyl)-2-(thiazol-2-yl)-3,6-dihydropyrimidin-4-yl)piperidin-1-yl)sulfonyl)-1-methylcyclohexanecarboxylic Acid]",EC50,[1],0.024 µM
same,CC50,[2],6 µM
COC(=O)C1=C([C@H]2CC[C@H](C(=O)OC)CC2)NC(c2nccs2)=NC1c1ccc(F)cc1Cl (stereo partly shown) [Compound 18X],EC50,[1],0.042 µM
same,CC50,[2],27.9 µM
"COC(=O)C1=C(C2CCCC(C(=O)O)CC2)NC(c2nccs2)=NC1c1ccc(F)cc1Cl (single isomer, unassigned) [Compound 95E, 4-(6-(2-Chloro-4-fluorophenyl)-5-(methoxycarbonyl)-2-(thiazol-2-yl)-3,6-dihydropyrimidin-4-yl)cycloheptanecarboxylic Acid]",EC50,[1],0.141 µM
same,CC50,[2],75 µM
"CCOC(=O)C1=C(C2CCN(S(=O)(=O)C3CC(C)(C(=O)O)C3)CC2)NC(c2nccs2)=NC1c1cccc(F)c1Cl (single isomer, unassigned) [Compound 321A, (trans)-3-((4-(6-(2-Chloro-3-fluorophenyl)-5-(ethoxycarbonyl)-2-(thiazol-2-yl)-3,6-dihydropyrimidin-4-yl)piperidin-1-yl)sulfonyl)-1-methylcyclobutanecarboxylic Acid]",EC50,[1],0.012 µM
same,CC50,[2],17.2 µM
"COC(=O)C1=C(C2CCC(=O)N2)NC(c2nccs2)=NC1c1cccc(F)c1Cl (single isomer, unassigned) [Compound 75A, Methyl 4-(2-chloro-3-fluorophenyl)-6-(5-oxopyrrolidin-2-yl)-2-(thiazol-2-yl)-1,4-dihydropyrimidine-5-carboxylate]",EC50,[1],0.213 µM
same,CC50,[2],32.3 µM
"COC(=O)C1=C(C2COC(CO)C2)NC(c2nccs2)=NC1c1cccc(F)c1Cl (single isomer, unassigned) [Compound 219C, Methyl 4-(2-chloro-3-fluorophenyl)-6-(5-(hydroxymethyl)-tetrahydrofuran-3-yl)-2-(thiazol-2-yl)-1,4-dihydropyrimidine-5-carboxylate]",EC50,[1],0.176 µM
same,CC50,[2],10.3 µM
